# Ends that are not written are not given here.
# Experiments:
# HEK-PR1 cells [1] = experiment: Potentiation of carbachol-evoked Ca2+ signals by 8-Br-cAMP in HEK-PR1 cells; assay type: cell-based; conditions: n = 3; for Peak [Ca2+]c: 8-Br-cAMP 10 mM, then carbachol 20 µM; for pEC50 / Δ[Ca2+]c (maximal potentiated increase): carbachol 20 µM
# Description: (§1) Results are shown as mean±s.e.m.
# EPAC1 and EPAC2 = experiment: Effect of EPAC antagonist ESI-09 on Ca2+ signals in HEK-PR1 cells; assay type: cell-based
# Protocol: (§2) HEK-PR1 cells (∼10^5 PTH1R/cell) were cultured as described previously ([Tovey et al., 2008]). Measurements of [Ca^2+]c in cell populations were performed as previously described ([Tovey et al., 2008]). Briefly, confluent cultures of HEK-PR1 grown in 96-well plates were loaded with fluo 4 by incubation with fluo 4AM (2 µM, 20°C) in HEPES-buffered saline (HBS). HBS had the following composition (in mM): NaCl 135, KCl 5.9, MgCl2 1.2, CaCl2 1.5, HEPES 11.6 and glucose 11.5, pH 7.3. After 1 h, loading medium was replaced with HBS, and after 45 min cells were used at 20°C for measurements of [Ca^2+]c. A fluorescence plate-reader equipped to allow automated fluid additions (FlexStation 3, Molecular Devices, Sunnyvale, CA, USA) was used to record fluorescence at intervals of 1.44 s (excitation at 485 nm; emission at >525 nm) ([Tovey et al., 2006]).
# PKA = experiment: Effect of PKA inhibitor H89 on PTH(1-34)-evoked cAMP and potentiated Ca2+ signals; assay type: cell-based; conditions: H89 10 µM, 20 min; for intracellular cAMP in H89-treated cells relative to matched control cells: mean±s.e.m., n = 3, SEM
# Protocol: These assays were performed under conditions that replicate those used for measurements of [Ca^2+]c. HEK-PR1 cells were grown in 24-well plates until ∼90% confluent, [^3H]adenine (2 µCi per well) was then added to the culture medium. After 2 h at 37°C in 5% CO2, the medium was removed, cells were washed with HBS, and used for experiments in HBS at 20°C. Because many cells extrude cAMP into the extracellular medium ([Copsel et al., 2011]), reactions were terminated by first removing the medium and then adding ice-cold trichloroacetic acid (5% v/v, 1 ml). After 30 min on ice, [^3H]cAMP was separated from other ^3H-adenine nucleotides by sequential column chromatography on Dowex cation exchange resin and alumina as previously described ([Pantazaka et al., 2013]). The activity of the eluates was determined by liquid scintillation counting and amounts of [^3H]cAMP are expressed as percentages of the sum of the activities recovered in the [^3H]cAMP, [^3H]ADP and [^3H]ATP fractions.
# adenylyl cyclase = experiment: Potentiation of carbachol-evoked Ca2+ signals by NKH477 in HEK-PR1 cells; assay type: cell-based; conditions: n = 3; for Peak [Ca2+]c: NKH477 200 µM, then carbachol 20 µM; for pEC50 / Δ[Ca2+]c (maximal potentiated increase): carbachol 20 µM
# Description: as §1
# PTH1R [2] = biological target: T1, PTH1R (Homo sapiens, UniProt Q03431); experiment: Intracellular cAMP accumulation ([3H]adenine labelling) in HEK-PR1 cells; assay type: cell-based; conditions: n = 3, read-out: cAMP pEC50 (converted)
# T1 construct: expressed in transfected cells
# T1 sequence (Q03431 27-593): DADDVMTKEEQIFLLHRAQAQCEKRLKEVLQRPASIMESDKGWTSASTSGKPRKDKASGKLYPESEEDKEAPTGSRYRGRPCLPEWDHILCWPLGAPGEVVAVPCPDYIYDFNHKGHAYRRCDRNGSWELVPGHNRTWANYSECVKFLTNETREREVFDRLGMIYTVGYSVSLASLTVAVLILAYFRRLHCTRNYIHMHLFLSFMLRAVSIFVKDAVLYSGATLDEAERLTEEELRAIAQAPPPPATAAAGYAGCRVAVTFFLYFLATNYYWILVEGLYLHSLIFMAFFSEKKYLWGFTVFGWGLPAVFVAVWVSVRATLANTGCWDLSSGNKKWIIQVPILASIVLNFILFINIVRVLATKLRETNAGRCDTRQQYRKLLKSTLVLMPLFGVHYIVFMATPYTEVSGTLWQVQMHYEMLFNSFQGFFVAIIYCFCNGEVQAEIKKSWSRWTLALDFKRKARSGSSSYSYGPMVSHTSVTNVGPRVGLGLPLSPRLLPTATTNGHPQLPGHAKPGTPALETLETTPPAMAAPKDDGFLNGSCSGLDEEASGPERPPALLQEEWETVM
# Protocol: These assays were performed under conditions that replicate those used for measurements of [Ca^2+]c. HEK-PR1 cells were grown in 24-well plates until ∼90% confluent, [^3H]adenine (2 µCi per well) was then added to the culture medium. After 2 h at 37°C in 5% CO2, the medium was removed, cells were washed with HBS, and used for experiments in HBS at 20°C. […] The activity of the eluates was determined by liquid scintillation counting and amounts of [^3H]cAMP are expressed as percentages of the sum of the activities recovered in the [^3H]cAMP, [^3H]ADP and [^3H]ATP fractions.
# PTH1R [3] = biological target: T1, PTH1R; experiment: Potentiation of carbachol-evoked Ca2+ signals by PTH analogues (fluo 4, HEK-PR1 cell populations); assay type: cell-based; conditions: then carbachol 20 µM in Ca2+-free HBS, n = 3, read-out: peak [Ca2+]c pEC50 (converted)
# Protocol: Briefly, confluent cultures of HEK-PR1 grown in 96-well plates were loaded with fluo 4 by incubation with fluo 4AM (2 µM, 20°C) in HEPES-buffered saline (HBS). […] After 1 h, loading medium was replaced with HBS, and after 45 min cells were used at 20°C for measurements of [Ca^2+]c.
# Concentration–effect relationships were fitted to Hill equations using Prism version 5 (GraphPad, San Diego, CA, USA). Results are shown as mean±s.e.m. […] All statistical comparisons are therefore between experiments performed in parallel and analysed using paired Student's t-tests.
# HEK-PR1 cells [4] = experiment: Cytosolic IP3 measured with FRET sensor in single HEK-PR1 cells; assay type: cell-based; conditions: carbachol 1 mM; mean±s.e.m., n = 17 coverslips; SEM
# Description: A FRET sensor based on the IP3-binding core of IP3R1 ([Tovey and Taylor, 2013]) was used to measure cytosolic concentrations of IP3 in single HEK-PR1 cells under conditions similar to those used for measurements of [Ca^2+]c. The plasmid and properties of the sensor were as described previously ([Tovey and Taylor, 2013]). The sensor comprises the IP3-binding core attached through short linkers to enhanced cyan fluorescent protein (CFP) at its N-terminus and enhanced yellow fluorescent protein (YFP) at its C-terminus (see inset to Fig. 3A). IP3 binding causes a decrease in FRET. […] An Olympus IX71 inverted fluorescence microscope with a 40× objective and a 440 nm/520 nm dual band-pass dichroic mirror was used to record fluorescence from widefield images after excitation at 440 nm (to excite CFP). A Luca EMCCD camera (Andor Technology, Belfast, UK) was used to collect emitted fluorescence simultaneously at 1-s intervals from YFP (520–550 nm) and CFP (455–485 nm) using a Cairn Optosplit 2 image-splitter fitted with a 495-nm dichroic mirror. After correction for background fluorescence (determined from cytosolic areas of non-transfected cells), FRET ratios are presented as the ratio of CFP emission to YFP emission, so that the ratio increases (decreased FRET) after IP3 binding.
# PTH1R [5] = conditions: Table S1, properties from the literature; ref Cupp et al., 2013 and others listed in Table S1; cited from earlier work
# PTH1R [6] = system: PTH1R; set-up: method as in 2 sources, one per row (each row's own in cited_ref): ref Cupp et al., 2013 and others listed in Table S1 ||| ref supplementary material Table S1; conditions: Table S1, properties from the literature; ref Cupp et al., 2013 and others listed in Table S1; cited from earlier work
# PTH1R [7] = biological target: T1, PTH1R; experiment: Ca2+ signals directly evoked by PTH analogues alone in HEK-PR1 cells; assay type: cell-based; conditions: highest concentrations of the analogue, no carbachol (Fig. 1F)
# Protocol: as §2
# [8] = PTH analogue 1 min, mean ± s.e.m., SEM
compound,measurement,setting,value
Nc1ncnc2c1nc(Br)n2[C@@H]1O[C@@H]2COP(=O)(O)O[C@H]2[C@H]1O [8-Br-cAMP],Peak [Ca2+]c,HEK-PR1 cells [1]; 5 min,386 ± 21 nM
same,Peak [Ca2+]c,HEK-PR1 cells [1]; 30 min,222 ± 24 nM
same,pEC50,HEK-PR1 cells [1]; 8-Br-cAMP 5 min,3.5 ± 0.1 /M
same,Δ[Ca2+]c (maximal potentiated increase),HEK-PR1 cells [1]; 8-Br-cAMP 5 min,207 ± 7 nM
same,pEC50,HEK-PR1 cells [1]; 8-Br-cAMP 30 min,3.7 ± 0.1 /M
same,Δ[Ca2+]c (maximal potentiated increase),HEK-PR1 cells [1]; 8-Br-cAMP 30 min,113 ± 5 nM
"CC(C)(C)c1cc(C(=O)C(C#N)=NNc2cccc(Cl)c2)no1 [ESI-09, 3-[5-(tert-butyl)isoxazol-3-yl]-2-[2-(3-chlorophenyl)hydrazono]-3-oxopropanenitril]",effect on Ca2+ signals evoked by carbachol alone,"EPAC1 and EPAC2; ESI-09 10 µM, 5 min",no significant effect
same,effect on concentration-dependent potentiation by PTH(1-34) of carbachol-evoked Ca2+ signals,"EPAC1 and EPAC2; ESI-09 10 µM, 5 min",no significant effect
same,effect on small Ca2+ signals directly evoked by high concentrations of PTH(1-34),"EPAC1 and EPAC2; ESI-09 10 µM, 5 min",no significant effect
same,effect on potentiation of carbachol-evoked Ca2+ signals by 8-Br-cAMP,"EPAC1 and EPAC2; ESI-09 10 µM, added 5 min before 8-Br-cAMP",unaffected
same,effect on carbachol-evoked Ca2+ release,EPAC1 and EPAC2; higher concentrations of ESI-09 (50 µM) or more prolonged treatments (15 min),directly inhibited carbachol-evoked Ca^2+ release
"Cl.Cl.O=S(=O)(NCCNCC=Cc1ccc(Br)cc1)c1cccc2cnccc12 [H89, N-[2-[[3-(4-bromophenyl)-2-propenyl]amino]ethyl]-5-isoquinolinesulfonamide dihydrochloride]","effect of PKA inhibition on acute and sustained effects of PTH(1-34), NKH477 or 8-Br-cAMP on carbachol-evoked Ca2+ signals",PKA,no effect
same,intracellular cAMP in H89-treated cells relative to matched control cells,PKA; 3 µM PTH(1-34) for 1 min,95±0.1%
same,intracellular cAMP in H89-treated cells relative to matched control cells,PKA; 3 µM PTH(1-34) for 60 min,98±0.2%
"C=C[C@@]1(C)CC(=O)[C@]2(O)[C@@]3(C)[C@@H](O)CCC(C)(C)[C@@H]3C(OC(=O)CCN(C)C)[C@H](OC(C)=O)[C@@]2(C)O1.Cl (stereo partly drawn) [NKH477, N,N-dimethyl-(3R,4aR,5S,6aS,10S,10aR,10bS)-5-(acetyloxy)-3-ethenyldodecahydro-10,10b-dihydroxy-3,4a,7,7,10a-pentamethyl-1-oxo-1H-naphtho[2,1-b]pyran-6-yl ester β-alanine hydrochloride]",Peak [Ca2+]c,adenylyl cyclase; 2 min,331 ± 20 nM
same,Peak [Ca2+]c,adenylyl cyclase; 30 min,256 ± 12 nM
same,pEC50,adenylyl cyclase; NKH477 2 min,5.0 ± 0.3 /M
same,Δ[Ca2+]c (maximal potentiated increase),adenylyl cyclase; NKH477 2 min,257 ± 3 nM
same,pEC50,adenylyl cyclase; NKH477 5 min,5.0 ± 0.1 /M
same,Δ[Ca2+]c (maximal potentiated increase),adenylyl cyclase; NKH477 5 min,225 ± 9 nM
same,pEC50,adenylyl cyclase; NKH477 15 min,5.0 ± 0.1 /M
same,Δ[Ca2+]c (maximal potentiated increase),adenylyl cyclase; NKH477 15 min,155 ± 10 nM
same,pEC50,adenylyl cyclase; NKH477 30 min,6.0 ± 0.1 /M
same,Δ[Ca2+]c (maximal potentiated increase),adenylyl cyclase; NKH477 30 min,124 ± 24 nM
CC[C@H](C)[C@H](NC(=O)[C@H](CCC(=O)O)NC(=O)[C@H](CO)NC(=O)[C@@H](NC(=O)[C@@H](N)Cc1ccc(O)cc1)C(C)C)C(=O)N[C@@H](CCC(N)=O)C(=O)N[C@@H](CC(C)C)C(=O)N[C@@H](CCSC)C(=O)N[C@@H](Cc1c[nH]cn1)C(=O)N[C@@H](CC(N)=O)C(=O)N[C@@H](CC(C)C)C(=O)NCC(=O)N[C@@H](CCCCN)C(=O)N[C@@H](Cc1c[nH]cn1)C(=O)N[C@@H](CC(C)C)C(=O)N[C@@H](CC(N)=O)C(=O)N[C@@H](CO)C(=O)N[C@@H](CCSC)C(=O)N[C@@H](CCC(=O)O)C(=O)N[C@@H](CCCNC(=N)N)C(=O)N[C@H](C(=O)N[C@@H](CCC(=O)O)C(=O)N[C@@H](Cc1c[nH]c2ccccc12)C(=O)N[C@@H](CC(C)C)C(=O)N[C@@H](CCCNC(=N)N)C(=O)N[C@@H](CCCCN)C(=O)N[C@@H](CCCCN)C(=O)N[C@@H](CC(C)C)C(=O)N[C@@H](CCC(N)=O)C(=O)N[C@@H](CC(=O)O)C(=O)N[C@H](C(=O)N[C@@H](Cc1c[nH]cn1)C(=O)N[C@@H](CC(N)=O)C(=O)N[C@@H](Cc1ccccc1)C(=O)O)C(C)C)C(C)C [Tyr1PTH(1-34)],EC50,PTH1R [2]; PTH analogue 1 min,794 nM
same,EC50,PTH1R [2]; PTH analogue 30 min,200 nM
same,EC50,PTH1R [3]; [8],200 nM
same,EC50,PTH1R [3]; PTH analogue 30 min,39.8 nM
"C[N+](C)(C)CCOC(N)=O [carbachol, Carbamylcholine chloride]",transfected cells responding with discernible FRET changes,HEK-PR1 cells [4],52±2%
"PTH(3-34): PTH analogue not used in this study, included for comparison with earlier work (SEIQLMHNLGKHLNSMERVEWLRKKLQDVHNF; Parathyroid hormone; UniProt P01270 34-65, looked up, fragment)",Gq (PLC),PTH1R [5],Inactive
same,Signalling to AC from internalized PTH1R,PTH1R [6],No
"SVSEIQLMHNLGKHLNSMERVEWLRKKLQDV [PTH(1-31), analogue of PTH that stimulates adenylyl cyclase]",direct Ca2+ signal evoked by the analogue alone,PTH1R [7],directly evoked small Ca^2+ signals
same,Signalling to AC from internalized PTH1R,PTH1R [6],Yes
VSEIQLMHNLGKHLNSMERVEWLRKKLQDVHNFVALG [PTH(2-38)],EC50,PTH1R [2]; PTH analogue 1 min,316 nM
same,EC50,PTH1R [2]; PTH analogue 30 min,63.1 nM
same,EC50,PTH1R [3]; [8],126 nM
same,EC50,PTH1R [3]; PTH analogue 30 min,50.1 nM
